Experimental data as given in US8784893B2, “Polymer formulations for delivery of bioactive agents” (Carbylan Therapeutics, Inc., priority 2007, dated 2014).

Assay: In vitro release of solid steroid from Carb-S/PEG-DA crosslinked (CARBYLAN-SX) gels into PBS
Assay type: physicochemical
Conditions: solid drug in gel, 37° C., after 72 hours of incubation
Experimental: A 1.75% (w/v) solution of the Carb-S (Example 2) was prepared using deionized water and the pH was adjusted to 7.4. […] A 4% (w/v) polyethylene glycol diacrylate (PEG-DA) [Mw=3400] solution was prepared using deionized water and the pH was adjusted to 7.4. […] After vortexing the mixture, 0.2 mL of the mixture was added to a 15 mL plastic centrifuge tube. […] The samples were kept at 37° C. by placing the shaker in an incubation oven that was set at 37° C. At specific intervals (24 hrs), the PBS buffer supernatant was removed from the tube and the steroid concentration in the PBS buffer was determined using UV absorption spectroscopy. […] 10 mL fresh PBS buffer was added to each tube and the tubes were returned to the shaker. This gelation and release testing was repeated in a similar manner using solid beclamethasone dipropionate (10 mg). […] Controlled Release, 1 (2000)).

Drug detected (released) from the CARBYLAN-SX polymer matrix: less than 5%
SMILES: CCC(=O)OCC(=O)[C@@]1(OC(=O)CC)[C@@H](C)C[C@H]2[C@@H]3CCC4=CC(=O)C=C[C@]4(C)[C@@]3(Cl)[C@@H](O)C[C@@]21C [beclomethasone diproprionate]
